Assay results: patent US8410097B2 (priority 2005, dated 2013)
Where two headings read alike, the source gives them in different places.

Key:
CB1 cannabinoid receptor = target: T1, CB1 cannabinoid receptor (Rattus norvegicus, UniProt P20272); experiment: biochemical; type: binding; details: for Ki: rat forebrain membranes; for Selectivity CB1: CB1 over CB2 binding selectivity (ratio of Ki)
T1 construct: membranes were prepared from rat forebrain membranes; from tissue; host or cells: rat forebrain membranes
Experimental: Some of the inventive analogs were tested for CB2 receptor binding affinity and for CB1 receptor affinity (to determine selectivity). […] The lower the Ki value the higher the binding affinity. […]
Membranes, previously frozen at −80° C., were thawed on ice. To the stirred suspension was added three volumes of TME (25 mM Tris-HCl buffer, 5 mM MgCl2 and 1 mM EDTA) at a pH 7.4. The suspension was incubated at 4° C. for 30 min. At the end of the incubation, the membranes were pelleted and washed three times with TME.
(§1) The treated membranes were subsequently used in the binding assay described below. Approximately 30 μg of membranes were incubated in silanized 96-well microtiter plate with TME containing 0.1% essentially fatty acid-free bovine serum albumin (BSA), 0.8 nM [^3H] […] Radioactivity was detected using MicroScint 20 scintillation cocktail added directly to the dried filterplates, and the filterplates were counted using a Packard Instruments Top-Count. […] Data collected from three independent experiments performed with duplicate determinations was normalized between 100% and 0% specific binding for [^3H] […] The normalized data was analyzed using a 4-parameter nonlinear logistic equation to yield IC50 values.

CB2 cannabinoid receptor = CB2 cannabinoid receptor (Mus musculus, UniProt P47936); experiment: biochemical; type: binding; details: mouse spleen membranes
Experimental: Some of the inventive analogs were tested for CB2 receptor binding affinity and for CB1 receptor affinity (to determine selectivity). […] The lower the Ki value the higher the binding affinity.
as §1
Silanized centrifuge tubes were used throughout to minimize receptor loss due to adsorption. The CB2 binding assay was conducted in the same manner as for the CB1 binding assay. The binding affinities (Ki) were also expressed in nanomoles (nM).

[1] = Receptor Affinities Ki (nM) CB1, Table 9
[2] = Table 9, read-out: Receptor Affinities Ki (nM) CB2
[3] = CB1 Ki, Table 6, 0.8 nM [3H] CP-55,940
[4] = CB2 Ki, Table 6, [3H] CP-55,940
[5] = Table 6, [3H] CP-55,940, read-out: CB2 Ki
[6] = Receptor Affinities Ki (nM) CB1, Table 10
[7] = Table 10, read-out: Receptor Affinities Ki (nM) CB2
[8] = Receptor Affinities Ki (nM) CB1, Table 8
[9] = Table 6, 0.8 nM [3H] CP-55,940, read-out: CB1 Ki
[10] = Table 8, read-out: Receptor Affinities Ki (nM) CB2

CB2 cannabinoid receptor, sequence (P47936 whole entry): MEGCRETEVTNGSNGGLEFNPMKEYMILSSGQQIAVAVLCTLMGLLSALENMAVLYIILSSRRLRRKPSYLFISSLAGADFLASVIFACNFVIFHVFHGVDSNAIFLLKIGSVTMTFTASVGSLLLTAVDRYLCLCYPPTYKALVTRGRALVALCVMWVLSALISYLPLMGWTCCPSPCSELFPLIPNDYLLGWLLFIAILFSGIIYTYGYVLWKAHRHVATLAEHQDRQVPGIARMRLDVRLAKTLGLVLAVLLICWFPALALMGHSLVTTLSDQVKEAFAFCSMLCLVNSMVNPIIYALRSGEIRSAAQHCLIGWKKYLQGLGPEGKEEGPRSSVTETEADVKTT
T1 sequence (P20272 whole entry): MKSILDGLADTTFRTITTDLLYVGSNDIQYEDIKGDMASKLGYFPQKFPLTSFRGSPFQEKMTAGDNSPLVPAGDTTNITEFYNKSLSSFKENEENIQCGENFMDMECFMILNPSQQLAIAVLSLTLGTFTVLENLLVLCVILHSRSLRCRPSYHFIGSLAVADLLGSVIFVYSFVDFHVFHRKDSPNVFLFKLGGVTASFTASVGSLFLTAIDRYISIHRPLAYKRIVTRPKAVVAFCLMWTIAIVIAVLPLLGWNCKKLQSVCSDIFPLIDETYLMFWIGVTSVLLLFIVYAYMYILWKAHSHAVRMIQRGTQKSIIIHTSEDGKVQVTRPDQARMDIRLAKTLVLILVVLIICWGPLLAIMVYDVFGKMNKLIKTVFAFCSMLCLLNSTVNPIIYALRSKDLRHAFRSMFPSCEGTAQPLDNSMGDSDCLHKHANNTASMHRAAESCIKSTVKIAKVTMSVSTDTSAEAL

Cc1c(C(=O)NN2CCCCC2)nn(-c2ccc(Cl)cc2Cl)c1-c1ccc(CCCCN=[N+]=[N-])cc1 [Compound 4-5]
Ki (CB1 cannabinoid receptor; [1]): 3 nM | Selectivity CB1 (CB1 cannabinoid receptor; Table 9): 59 | Ki (CB2 cannabinoid receptor; [2]): 177 nM

Cc1c(C(=O)N(C)C2CCCCC2)nc(-c2ccc(Cl)cc2Cl)n1-c1ccc(-c2nnnn2C)cc1 [Compound 1-23]
Ki (CB1 cannabinoid receptor; [3]): 982 nM | Ki (CB2 cannabinoid receptor; [4]): 4150 nM

Cc1c(C(=O)NN2CCCCC2)nn(-c2ccc(Cl)cc2Cl)c1-c1ccc(CCCCO)cc1 [Compound 4-2]
Ki (CB1 cannabinoid receptor; [1]): 2 nM | Selectivity CB1 (CB1 cannabinoid receptor; Table 9): 21 | Ki (CB2 cannabinoid receptor; [2]): 43 nM

N=C(S)c1ccc(-n2c(-c3ccc(Cl)cc3Cl)nc(C(=O)NN3CCCCC3)c2CO)cc1 [Compound 1-29]
Ki (CB1 cannabinoid receptor; [3]): 47.6 nM | Ki (CB2 cannabinoid receptor; [5]): 640 nM

Cc1c(C(=O)NN2CCCCC2)nn(-c2ccc(Cl)cc2Cl)c1-c1ccc(C#CCCN)cc1 [Compound 5-13]
Ki (CB1 cannabinoid receptor; [6]): 20 nM | Selectivity CB1 (CB1 cannabinoid receptor; Table 10): 36 | Ki (CB2 cannabinoid receptor; [7]): 732 nM

Cc1c(C(=O)N(C)C2CCCCC2)nc(-c2ccc(Cl)cc2Cl)n1-c1ccc(C#CCCO)cc1 [Compound 3-8]
Ki (CB1 cannabinoid receptor; [8]): 12 nM | Selectivity CB1 (CB1 cannabinoid receptor; Table 8): 36 | Ki (CB2 cannabinoid receptor; Receptor Affinities Ki (nM) CB2, Table 8): 440 nM

Cc1c(C(=O)NN2CCCCC2)nc(-c2ccc(Cl)cc2Cl)n1-c1ccc(-c2nnn(C)n2)cc1 [Compound 1-18]
Ki (CB1 cannabinoid receptor; [3]): 6.5 nM | Ki (CB2 cannabinoid receptor; [5]): 5080 nM

Cc1c(C(=O)NN2CCCCC2)nc(-c2ccc(Cl)cc2Cl)n1-c1ccc(C#CCCC#N)cc1 [Compound 1-33]
Ki (CB1 cannabinoid receptor; [3]): 1.6 nM | Ki (CB2 cannabinoid receptor; [5]): 271 nM

Cn1nnnc1-c1ccc(-n2c(-c3ccc(Cl)cc3Cl)nc(C(=O)NN3CCCCC3)c2CO)cc1 [Compound 1-20]
Ki (CB1 cannabinoid receptor; [9]): 400 nM | Ki (CB2 cannabinoid receptor; [5]): 12300 nM

Cc1c(C(=O)NN2CCCCC2)nn(-c2ccc(Cl)cc2Cl)c1-c1ccc(C#CC2(O)CCCC2)cc1 [Compound 5-8]
Ki (CB1 cannabinoid receptor; [6]): 9 nM | Selectivity CB1 (CB1 cannabinoid receptor; Table 10): 1.5 | Ki (CB2 cannabinoid receptor; [7]): 13 nM

N#Cc1ccc(-n2c(-c3ccc(Cl)cc3Cl)nc(C(=O)NN3CCCCC3)c2CO)cc1 [Compound 1-9]
Ki (CB1 cannabinoid receptor; [3]): 51 nM | Ki (CB2 cannabinoid receptor; [5]): 5460 nM

Cc1cc(Br)ccc1-n1c(-c2ccc(Cl)cc2Cl)nc(C(=O)NN2CCCCC2)c1C [Compound 1-1]
Ki (CB1 cannabinoid receptor; [3]): 29.8 nM | Ki (CB2 cannabinoid receptor; [5]): 808 nM

Cc1c(NC(=O)N(C)C2CCCCC2)nc(-c2ccc(Cl)cc2Cl)n1-c1ccc(Br)cc1 [Compound 1-37]
Ki (CB1 cannabinoid receptor; [3]): 14.2 nM | Ki (CB2 cannabinoid receptor; [5]): 1420 nM

O=C(Nc1nc(-c2ccc(Cl)cc2Cl)n(-c2ccc(I)cc2)c1CO)NC1CCCCC1 [Compound 1-39]
Ki (CB1 cannabinoid receptor; [3]): 6.8 nM | Ki (CB2 cannabinoid receptor; [5]): 1340 nM

Cc1c(C(=O)NN2CCCCC2)nn(-c2ccc(Cl)cc2Cl)c1-c1ccc(C#CCCCO)cc1 [Compound 3-5]
Ki (CB1 cannabinoid receptor; [8]): 2 nM | Selectivity CB1 (CB1 cannabinoid receptor; Table 8): 72 | Ki (CB2 cannabinoid receptor; [10]): 144 nM

Cc1c(C(=O)N(C)C2CCCCC2)nc(-c2ccc(Cl)cc2Cl)n1-c1ccc(-c2nnn[nH]2)cc1 [Compound 1-22]
Ki (CB1 cannabinoid receptor; [9]): 359 nM | Ki (CB2 cannabinoid receptor; [5]): 26300 nM

Cc1c(C(=O)NN2CCCCC2)nc(-c2ccc(Cl)cc2Cl)n1-c1ccc(C#CCCO)cc1 [Compound 1-32]
Ki (CB1 cannabinoid receptor; [3]): 6.2 nM | Ki (CB2 cannabinoid receptor; [5]): 5090 nM

Cc1c(C(=O)NN2CC3CCCC3C2)nn(-c2ccc(Cl)cc2Cl)c1-c1ccc(C#CCCO)cc1 (centres unmarked) [Compound 3-6]
Ki (CB1 cannabinoid receptor; [8]): 7 nM | Selectivity CB1 (CB1 cannabinoid receptor; Table 8): 28 | Ki (CB2 cannabinoid receptor; [10]): 199 nM

O=C(NN1CCCCC1)c1nn(-c2ccc(Cl)cc2Cl)c(-c2ccc(CCCO)cc2)c1CO [Compound 4-6]
Ki (CB1 cannabinoid receptor; [1]): 21 nM | Selectivity CB1 (CB1 cannabinoid receptor; Table 9): 3 | Ki (CB2 cannabinoid receptor; [2]): 66 nM

O=C(Nc1nc(-c2ccc(Cl)cc2Cl)n(-c2ccc(I)cc2)c1CBr)NC1CCCCC1 [Compound 1-38]
Ki (CB1 cannabinoid receptor; [3]): 5 nM | Ki (CB2 cannabinoid receptor; [5]): 75.3 nM

Cc1c(C(=O)NN2CCCCC2)nn(-c2ccc(Cl)cc2Cl)c1-c1ccc(C#CCN(C)C)cc1 [Compound 5-1]
Ki (CB1 cannabinoid receptor; [6]): 51 nM | Selectivity CB1 (CB1 cannabinoid receptor; Table 10): 1.5 | Ki (CB2 cannabinoid receptor; [7]): 76 nM

O=C(NN1CCCCC1)c1nc(-c2ccc(Cl)cc2Cl)n(-c2ccc(-c3nccs3)cc2)c1CO [Compound 1-30]
Ki (CB1 cannabinoid receptor; [3]): 23.9 nM | Ki (CB2 cannabinoid receptor; [5]): 1510 nM

Cc1c(NC(=O)NC2CCCCC2)nc(-c2ccc(Cl)cc2Cl)n1-c1ccc(Br)cc1 [Compound 1-35]
Ki (CB1 cannabinoid receptor; [3]): 6.9 nM | Ki (CB2 cannabinoid receptor; [4]): 20500 nM

Cc1c(C(=O)NN2CCCCC2)nn(-c2ccc(Cl)cc2Cl)c1-c1ccc(CCC#N)cc1 [Compound 4-4]
Ki (CB1 cannabinoid receptor; [1]): 13 nM | Selectivity CB1 (CB1 cannabinoid receptor; Table 9): 176 | Ki (CB2 cannabinoid receptor; [2]): 2290 nM

O=C(NN1CCCCC1)c1nc(-c2ccc(Cl)cc2Cl)n(-c2ccc(-c3nnn[nH]3)cc2)c1CO [Compound 1-19]
Ki (CB1 cannabinoid receptor; [9]): 5760 nM | Ki (CB2 cannabinoid receptor; [5]): 22300 nM

CN(C(=O)c1nc(-c2ccc(Cl)cc2Cl)n(-c2ccc(-c3nnnn3C)cc2)c1CO)C1CCCCC1 [Compound 1-26]
Ki (CB1 cannabinoid receptor; [9]): 101 nM | Ki (CB2 cannabinoid receptor; [5]): 1320 nM

Cc1c(C(=O)NN2CCCCC2)nc(-c2ccc(Cl)cc2Cl)n1-c1ccc(Br)cc1 [Compound 1-2]
Ki (CB1 cannabinoid receptor; [3]): 11.5 nM | Ki (CB2 cannabinoid receptor; [4]): 462 nM

Cc1c(NC(=O)NC2CCCCC2)nc(-c2ccc(Cl)cc2Cl)n1-c1ccc(I)cc1 [Compound 1-36]
Ki (CB1 cannabinoid receptor; [3]): 1.2 nM | Ki (CB2 cannabinoid receptor; [5]): 7240 nM

Cc1c(C(=O)NN2CCCCC2)nn(-c2ccc(Cl)cc2Cl)c1-c1ccc(C#CC2CC2)cc1 [Compound 5-6]
Ki (CB1 cannabinoid receptor; [6]): 12 nM | Selectivity CB1 (CB1 cannabinoid receptor; Table 10): 1.5 | Ki (CB2 cannabinoid receptor; [7]): 20 nM

N#CCCC#Cc1ccc(-n2c(-c3ccc(Cl)cc3Cl)nc(C(=O)NN3CCCCC3)c2CO)cc1 [Compound 3-10]
Ki (CB1 cannabinoid receptor; [8]): 2 nM | Selectivity CB1 (CB1 cannabinoid receptor; Table 8): 140 | Ki (CB2 cannabinoid receptor; [10]): 279 nM

Cc1c(C(=O)NN2CCCCC2)nc(-c2ccc(Cl)cc2Cl)n1-c1ccc(-c2nccs2)cc1 [Compound 1-28]
Ki (CB1 cannabinoid receptor; [3]): 7.7 nM | Ki (CB2 cannabinoid receptor; [5]): 656 nM

Cc1c(C(=O)N2CCCCC2)nc(-c2ccc(Cl)cc2Cl)n1-c1ccc(Br)cc1 [Compound 1-13]
Ki (CB1 cannabinoid receptor; [3]): 22 nM | Ki (CB2 cannabinoid receptor; [5]): 2450 nM

Cc1c(C(=O)NN2CCCCC2)nn(-c2ccc(Cl)cc2Cl)c1-c1ccc(CCCO)cc1 [Compound 4-1, 1-(2,4-Dichloro-phenyl)-5-[4-(3-hydroxy-propyl)-phenyl]-4-methyl-1H-pyrazole-3-carboxylic acid piperidin-1-ylamide]
Ki (CB1 cannabinoid receptor; [1]): 26 nM | Selectivity CB1 (CB1 cannabinoid receptor; Table 9): 8 | Ki (CB2 cannabinoid receptor; [2]): 230 nM

Cc1c(C(=O)NN2CCCCC2)nn(-c2ccc(Cl)cc2Cl)c1-c1ccc(C#CCCCN)cc1 [Compound 5-14]
Ki (CB1 cannabinoid receptor; [6]): 46 nM | Selectivity CB1 (CB1 cannabinoid receptor; Table 10): 20 | Ki (CB2 cannabinoid receptor; [7]): 947 nM

Cc1c(C(=O)N(C)C2CCCCC2)nc(-c2ccc(Cl)cc2Cl)n1-c1ccc(C#CCN=[N+]=[N-])cc1 [Compound 3-11]
Ki (CB1 cannabinoid receptor; [8]): 1 nM | Selectivity CB1 (CB1 cannabinoid receptor; Table 8): 82 | Ki (CB2 cannabinoid receptor; [10]): 82 nM

Cc1c(C(=O)NN2CCCCC2)nc(-c2ccc(Cl)cc2Cl)n1-c1ccc(-c2nnnn2C)cc1 [Compound 1-17]
Ki (CB1 cannabinoid receptor; [9]): 2290 nM | Ki (CB2 cannabinoid receptor; [5]): 24500 nM

Cc1c(C(=O)NN2CCCCC2)nn(-c2ccc(Cl)cc2Cl)c1-c1ccc(C#Cc2ccccn2)cc1 [Compound 5-9]
Ki (CB1 cannabinoid receptor; [6]): 50 nM | Selectivity CB1 (CB1 cannabinoid receptor; Table 10): 1 | Ki (CB2 cannabinoid receptor; [7]): 59 nM

Cc1cc(Br)ccc1-n1c(-c2ccc(Cl)cc2Cl)nc(C(=O)NN2CCCCC2)c1CO [Compound 1-3]
Ki (CB1 cannabinoid receptor; [3]): 54.7 nM | Ki (CB2 cannabinoid receptor; [5]): 803 nM
